Test results as given in patent US12655125B2 (SIRONAX LTD., priority 2020, dated 2026).

What follows are molecules tested on HT-29 cells (assay: HT29 Cells 0FBS Assay In Vitro (TNF-α/SMAC mimetic/zVAD-FMK induced necroptosis, CellTiter-Glo cell viability)). Settings: Homo sapiens; HT-29 cells, FBS free medium, TNF-α (10 ng/ml), SMAC mimetic (6 uM), zVAD-FMK (10 μM), 20 hours; geometric mean EC50; read-out: Cell activity (EC50) of Compounds 1-116.
Format: cell-based
In short: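 HT-29 cells (5,000/well, seeded overnight) in serum-free McCoy's 5A were stimulated with TNF-α 10 ng/ml, SMAC mimetic 6 μM and zVAD-FMK 10 μM to induce necroptosis. Compound added as 10-point 3-fold series for 20 h at 37° C. CellTiter-Glo luminescence gives viability; EC50 is geometric mean of duplicate dose-responses.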

**Q.** For `COCc1cnn(C)c1-c1cc(OC2CN(C(=O)N3N=CC[C@H]3c3cc(F)cc(F)c3)C2)c(F)cn1` [compound 80, (S)-(5-(3,5-difluorophenyl)-4,5-dihydro-1H-pyrazol-1-yl)(3-((5-fluoro-2-(4-(methoxymethyl)-1-methyl-1H-pyrazol-5-yl)pyridin-4-yl)oxy)azetidin-1-yl)methanone], which EC50 is on record?
**A.** The EC50 was 0.1 to 100 nM.

**Q.** With `Cc1ncn(C)c1-c1ccc(F)c(OC2CN(C(=O)N3N=CC[C@H]3c3cc(F)cc(F)c3)C2)n1` [compound 44, (S)-(5-(3,5-difluorophenyl)-4,5-dihydro-1H-pyrazol-1-yl)(3-((6-(1,4-dimethyl-1H-imidazol-5-yl)-3-fluoropyridin-2-yl)oxy)azetidin-1-yl)methanone] as the molecule, how does the EC50 read?
**A.** Its EC50 is 0.1 to 100 nM.

**Q.** Which EC50 does the source give for `Cc1ncn(C)c1-c1cc(OC2CN(C(=O)N3N=CC[C@H]3c3cc(F)cc(F)c3)C2)c(F)cn1` [compound 45, (S)-(5-(3,5-difluorophenyl)-4,5-dihydro-1H-pyrazol-1-yl)(3-((2-(1,4-dimethyl-1H-imidazol-5-yl)-5-fluoropyridin-4-yl)oxy)azetidin-1-yl)methanone] here?
**A.** Its EC50 is 0.1 to 100 nM.

**Q.** `Cc1nc(C)n(-c2cc(OC3CN(C(=O)N4N=CC[C@H]4c4cc(F)cc(F)c4)C3)c(F)cn2)n1` [compound 104, (S)-(5-(3,5-difluorophenyl)-4,5-dihydro-1H-pyrazol-1-yl)(3-((2-(3,5-dimethyl-1H-1,2,4-triazol-1-yl)-5-fluoropyridin-4-yl)oxy)azetidin-1-yl)methanone] was tested. Which EC50 did it give?
**A.** Its EC50 is 0.1 to 100 nM.

**Q.** With `CN(C)C(=O)c1cnn(C)c1-c1cc(OC2CN(C(=O)N3N=CC[C@H]3c3cc(F)cc(F)c3)C2)c(F)cn1` [compound 68, (S)-5-(4-((1-(5-(3,5-difluorophenyl)-4,5-dihydro-1H-pyrazole-1-carbonyl)azetidin-3-yl)oxy)-5-fluoropyridin-2-yl)-N,N,1-trimethyl-1H-pyrazole-4-carboxamide] as the molecule, how does the EC50 read?
**A.** The EC50 was 1000 to 10000 nM.

**Q.** With `NC(=O)Cn1nccc1-c1ncc(F)c(OC2CN(C(=O)N3N=CC[C@H]3c3cc(F)cc(F)c3)C2)n1` [compound 88, (S)-2-(5-(4-((1-(5-(3,5-difluorophenyl)-4,5-dihydro-1H-pyrazole-1-carbonyl)azetidin-3-yl)oxy)-5-fluoropyrimidin-2-yl)-1H-pyrazol-1-yl)acetamide] as the molecule, how does the EC50 read?
**A.** Its EC50 is 100 to 1000 nM.

**Q.** How did the EC50 turn out when `Cc1nn(CC(=O)N(C)C)c(C)c1-c1cc(OC2CN(C(=O)N3N=CC[C@H]3c3cc(F)cc(F)c3)C2)c(F)cn1` [compound 95, (S)-2-(4-(4-((1-(5-(3,5-difluorophenyl)-4,5-dihydro-1H-pyrazole-1-carbonyl)azetidin-3-yl)oxy)-5-fluoropyridin-2-yl)-3,5-dimethyl-1H-pyrazol-1-yl)-N,N-dimethylacetamide] was run?
**A.** Its EC50 is 0.1 to 100 nM.

**Q.** With `Cn1ncnc1-c1ncc(F)c(OC2CN(C(=O)N3N=CC[C@H]3c3cc(F)cc(F)c3)C2)n1` [compound 30, (S)-(5-(3,5-difluorophenyl)-4,5-dihydro-1H-pyrazol-1-yl)(3-((5-fluoro-2-(1-methyl-1H-1,2,4-triazol-5-yl)pyrimidin-4-yl)oxy)azetidin-1-yl)methanone] as the molecule, how does the EC50 read?
**A.** The EC50 was 0.1 to 100 nM.

Same assay, conditions: Homo sapiens; HT-29 cells, FBS free medium, TNF-α (10 ng/ml), SMAC mimetic (6 uM), zVAD-FMK (10 μM), 20 hours; geometric mean EC50; read-out: Cell activity (EC50) of Compounds 117-281

**Q.** With `Cc1c(N(C)CC2CC2)nn(C)c1-c1cc(OC2CN(C(=O)N3N=CC[C@H]3c3cc(F)cc(F)c3)C2)c(F)cn1` [compound 164, (S)-(3-((2-(3-((cyclopropylmethyl)(methyl)amino)-1,4-dimethyl-1H-pyrazol-5-yl)-5-fluoropyridin-4-yl)oxy)azetidin-1-yl)(5-(3,5-difluorophenyl)-4,5-dihydro-1H-pyrazol-1-yl)methanone] as the molecule, how does the EC50 read?
**A.** Its EC50 is 0.1 to 100 nM.

**Q.** With `CNC(=O)c1c(C)c(-c2cc(OC3CN(C(=O)N4N=CC[C@H]4c4cc(F)cc(F)c4)C3)c(F)cn2)nn1C` [compound 246, (S)-3-(4-((1-(5-(3,5-difluorophenyl)-4,5-dihydro-1H-pyrazole-1-carbonyl)azetidin-3-yl)oxy)-5-fluoropyridin-2-yl)-N,1,4-trimethyl-1H-pyrazole-5-carboxamide] as the molecule, how does the EC50 read?
**A.** Its EC50 is 0.1 to 100 nM.

**Q.** With `Cc1nn(-c2cc(OC3CN(C(=O)N4N=CC[C@H]4c4cc(F)cc(F)c4)C3)c(F)cn2)c(C)c1S(=O)(=O)NC1COC1` [compound 240] as the molecule, how does the EC50 read?
**A.** Its EC50 is 0.1 to 100 nM.

**Q.** With `Cc1cnc(C)n1-c1cc(OC2CN(C(=O)N3N=CC[C@H]3c3cc(F)cc(F)c3)C2)c(F)cn1` [compound 182, (S)-(5-(3,5-difluorophenyl)-4,5-dihydro-1H-pyrazol-1-yl)(3-((2-(2,5-dimethyl-1H-imidazol-1-yl)-5-fluoropyridin-4-yl)oxy)azetidin-1-yl)methanone] as the molecule, how does the EC50 read?
**A.** Its EC50 is 0.1 to 100 nM.

**Q.** Which EC50 does the source give for `Cc1nn(-c2cc(OC3CN(C(=O)N4N=CC[C@H]4c4cc(F)cc(F)c4)C3)c(F)cn2)c(C)c1C(=O)NCCO` [compound 214, (S)-1-(4-((1-(5-(3,5-difluorophenyl)-4,5-dihydro-1H-pyrazole-1-carbonyl)azetidin-3-yl)oxy)-5-fluoropyridin-2-yl)-N-(2-hydroxyethyl)-3,5-dimethyl-1H-pyrazole-4-carboxamide] here?
**A.** Its EC50 is 0.1 to 100 nM.

**Q.** For `CCS(=O)(=O)c1c(C)nn(-c2cc(OC3CN(C(=O)N4N=CC[C@H]4c4cc(F)cc(F)c4)C3)c(F)cn2)c1C` [compound 167, (S)-(5-(3,5-difluorophenyl)-4,5-dihydro-1H-pyrazol-1-yl)(3-((2-(4-(ethylsulfonyl)-3,5-dimethyl-1H-pyrazol-1-yl)-5-fluoropyridin-4-yl)oxy)azetidin-1-yl)methanone], which EC50 is on record?
**A.** The EC50 was 0.1 to 100 nM.

**Q.** Which EC50 does the source give for `Cc1nn(-c2cc(OC3CN(C(=O)N4N=CC[C@H]4c4cc(F)cc(F)c4)C3)c(F)cn2)c(C)c1CC(=O)N1CCOCC1` [compound 224, (S)-2-(1-(4-((1-(5-(3,5-difluorophenyl)-4,5-dihydro-1H-pyrazole-1-carbonyl)azetidin-3-yl)oxy)-5-fluoropyridin-2-yl)-3,5-dimethyl-1H-pyrazol-4-yl)-1-morpholinoethan-1-one] here?
**A.** The EC50 was 0.1 to 100 nM.

**Q.** With `Cc1nn(-c2cc(OC3CN(C(=O)N4N=CC[C@H]4c4cc(F)cc(F)c4)C3)c(F)cn2)c(C)c1C(=O)N[C@H]1C[C@H](O)C1` [compound 255, 1-(4-((1-((S)-5-(3,5-difluorophenyl)-4,5-dihydro-1H-pyrazole-1-carbonyl)azetidin-3-yl)oxy)-5-fluoropyridin-2-yl)-N-((1r,3r)-3-hydroxycyclobutyl)-3,5-dimethyl-1H-pyrazole-4-carboxamide] as the molecule, how does the EC50 read?
**A.** The EC50 was 0.1 to 100 nM.

**Q.** For `Cc1c(-c2cc(OC3CN(C(=O)N4N=CC[C@H]4c4cc(F)cc(F)c4)C3)c(F)cn2)nn(C)c1C(=O)NCCO` [compound 265, (S)-3-(4-((1-(5-(3,5-difluorophenyl)-4,5-dihydro-1H-pyrazole-1-carbonyl)azetidin-3-yl)oxy)-5-fluoropyridin-2-yl)-N-(2-hydroxyethyl)-1,4-dimethyl-1H-pyrazole-5-carboxamide], which EC50 is on record?
**A.** The EC50 was 0.1 to 100 nM.

**Q.** With `CSc1nn(C)c(-c2cc(OC3CN(C(=O)N4N=CC[C@H]4c4cc(F)cc(F)c4)C3)c(F)cn2)c1C` [compound 176, (S)-(5-(3,5-difluorophenyl)-4,5-dihydro-1H-pyrazol-1-yl)(3-((2-(1,4-dimethyl-3-(methylthio)-1H-pyrazol-5-yl)-5-fluoropyridin-4-yl)oxy)azetidin-1-yl)methanone] as the molecule, how does the EC50 read?
**A.** The EC50 was 0.1 to 100 nM.

**Q.** `Cc1nn(-c2cc(OC3CN(C(=O)N4N=CC[C@H]4c4cc(F)cc(F)c4)C3)c(F)cn2)c(C)c1C(=O)N[C@@H]1CCOC1` [compound 258, 1-(4-((1-((S)-5-(3,5-difluorophenyl)-4,5-dihydro-1H-pyrazole-1-carbonyl)azetidin-3-yl)oxy)-5-fluoropyridin-2-yl)-3,5-dimethyl-N—((R)-tetrahydrofuran-3-yl)-1H-pyrazole-4-carboxamide] was tested. Which EC50 did it give?
**A.** The EC50 was 0.1 to 100 nM.
